These results are taken from patent US11896680B2, “Detection method” (Mie University, priority 2017, dated 2024).

Each structure is given as a SMILES string.

The subject of assay [1] is large intestine of a mouse (normal mucosal tissue). The assay can be described thus: vital staining of normal mouse large intestine, imaged with confocal or multiphoton laser microscope. On the procedure:
(§1) 100 mg of curcumin (Tokyo Kasei, cat. #C2302, purity 97.0%) was suspended in 5 mL of ethanol, and further diluted 10-fold with ethanol. It was mixed with the same amount of glycerin, and further diluted 10-fold with glycerin. The mixture was mixed with the same amount of purified water to obtain a staining solution of curcumin. As for Red #106, its staining solution is obtained by dissolving the powder in saline to the concentration of 1 mg/mL.
(§2) C57BL/6N mice purchased from Japan SLC, Inc. were used in the tests. All tests were performed on male, 8-week-old mice weighing 20˜25 grams.
(§3) A multiphoton laser microscope of FVMPE-RS (Olympus) was used with the irradiation wavelength of 800 nm. Laser irradiation was performed at 5.8˜48.2% of its full power output. A confocal laser microscope of FV1000 (Olympus) was used with the irradiation wavelength of 488 nm and 594 nm, wherein the laser irradiation at 488 nm was performed at […] of its full power output, and the laser irradiation at 594 nm was performed at 13˜13.5% of its full power output. The direction of irradiation and staining from serosal or luminal side are described in the figures.

The subject of assay [2] is large intestine (cancer tumor site) of a colon cancer mouse. Description: vital staining of cancer tumor site in large intestine of colon cancer mouse, imaged with laser microscope. In kind it is in vivo. On the procedure:
as §1, §2
Model mice with colon cancer were prepared by intraperitoneally administering 10 mg/kg of azoxymethane (AOM) dissolved in saline 4 times at weekly intervals to C57BL/6N mice.
as §3

[3] abbreviates: five-layer structure of normal large intestine.
Setting [4] is: stained from serosa side, confocal laser microscope, FIG. 5c.
Setting [5] is: stained and photographed from luminal side, FIG. 11A and 11B.

In the case of `COc1cc(/C=C/C(=O)CC(=O)/C=C/c2ccc(O)c(OC)c2)ccc1O` [curcumin], in assay [1] (setting [3]), the “staining of Auerbach's plexus inside muscle layer” value is on record as “severely positive”; the “staining of glandular cells in epithelial and glandular layers (1)” value is given as “severely positive”; the “staining of the smooth muscle in muscle layer (4)” value is “mildly positive”; the “staining of the smooth muscle in muscularis mucosae (2)” value was “severely positive”. Further, in assay [1] (setting [4]), the “staining of nerve fibers of Auerbach's plexus” value is “lightly” and the “staining of perikaryon of Auerbach's plexus” value is reported as “darkly”. Further, the “staining of cytoplasm of invaded cancer cells inside smooth muscle layer relative to surrounding tissues” value in assay [2] (stained and observed from serosal side, confocal laser microscope, FIG. 10A) is on record as “darker than surrounding tissues”. Moreover, in assay [2] (setting [5]), the “staining of cytoplasm of cancer cells” value is “stained severely” and the “staining of nuclei of cancer cells” value is on record as “stained negatively”.
In the case of `CCN(CC)c1ccc2c(-c3ccc(S(=O)(=O)[O-])cc3S(=O)(=O)[O-])c3ccc(=[N+](CC)CC)cc-3oc2c1.[Na+]` [Red #106], in assay [1] (setting [3]), the “staining of network of capillaries surrounding the glandular structures of epithelial and glandular layers (1)” value is reported as “severely positive”; the “staining of the smooth muscle in muscle layer (4)” value was “mildly positive”; the “staining of the smooth muscle in muscularis mucosae (2)” value is “mildly positive”; the “staining of the wall of a thick blood vessel inside muscle layer” value is on record as “severely positive”.
